Data on two compounds can be found in patent US20230303564A1, “PYRIMIDINE RING COMPOUND” (MEDSHINE DISCOVERY INC., priority 2020, published 2023).

The subject of series [1] is human ovarian cancer OVCAR-3 cells subcutaneous xenograft tumor. Kind of series: In vivo efficacy study, OVCAR-3 subcutaneous xenograft tumor BALB/c nude mouse model. The protocol: In vivo efficacy study of human ovarian cancer OVCAR-3 cells subcutaneous xenograft tumor BALB/c nude mouse model
Cell culture: Human ovarian cancer OVCAR-3 cells were monolayer cultured in vitro, the culture conditions were 10% fetal bovine serum, 100 U/mL Penicillin and 100 μg/mL Streptomycin were added in RPMI 1640 medium, cultured at 37° C. 5% CO2 incubator. Conventional digestion with trypsin-EDTA was performed for passage. When the cell saturation was 80%/90% and the number reached the required level, the cells were collected, counted, and inoculated.
Animals: BALB/c nude mice, female, 6-8 weeks old, weighed 18-22 grams. A total of 95 (42+ additional 53) animals were needed, provided by the Experimental Animal Management Department of Shanghai Institute of Family Planning Sciences (formerly Shanghai Sipulbichem).
Tumor inoculation: 0.2 mL (1×10^7) OVCAR-3 cells (with matrix glue, volume ratio of 1:1) were subcutaneously inoculated on the right back of each mouse, and the mice were grouped administrated when the average tumor volume reached about 150 mm^3.
Dosage and frequency of administration: Day 0 to Day 7, 10 mg/kg; Day 7 to Day 14, 10 mg/kg; Day 14 to Day 21, 30 mg/kg;
Experimental index: The experimental index was used to examine whether tumor growth was inhibited, delayed or cured. Tumor diameters were measured with vernier calipers twice a week. The calculation formula of tumor volume was: V=0.5a×b^2, wherein a and b represented the long and short diameters of the tumor, respectively.

A further series has as its target CDK2/CyclinE1 (Homo sapiens (Human), UniProt P24941). Kind of series: CDK2/CyclinE1 enzyme activity test (ADP-Glo). The class given is biochemical. To be noted: 150 μM ATP, 25° C. 60 minutes, read-out: CDK2/Cyclin E1 IC50. The protocol: CDK2/CyclinE1 Enzyme Reaction System
(§1) Enzymes, substrates, ATP, and inhibitors were diluted by kinase buffer in the kit. The compounds to be tested were diluted 5-fold with a multi-channel pipette to the eighth concentration, that is, from 50 μM to 0.65 nM, the concentration of DMSO was 5%, and a double-hole experiment was set up. 1 μL of each concentration gradient of inhibitors, 2 μL of CDK2/CyclinE1 enzyme (2 ng), 2 μL mixture of substrate and ATP (150 μM ATP, 0.1 μg/μL substrate) were added to the microplates, and the final concentration gradient of the compound was 10 μM to 0.13 nM. The reaction system was reacted at 25° C. for 60 minutes. After the reaction, 5 μL of ADP-Glo reagent was added to each well, the reaction was carried out at 25° C. for 40 minutes, after the reaction was completed, 10 μL of kinase detection reagent was added to each well, the reaction was carried out at 25° C. for 30 minutes, the multiple label analyzer was used to read the chemiluminescence with an integration time of 0.5 seconds.
(§2) The equation (Sample−Min)/(Max−Min)*100% was used to convert the raw data into inhibition rate, and the value of IC50 can be obtained by curve fitting with four parameters (obtained by log (inhibitor) vs. response-Variable slope mode in GraphPad Prism). The enzymatic inhibitory activity of the compounds of the present disclosure on CDK1/CyclinB1, CDK2/CyclinA2, CDK2/CyclinE1, CDK4/CyclinD1, CDK6/CyclinD1, CDK7/CyclinH/MAT1, CDK9/CyclinT1 was provided in Table 1.

The target of another series is CDK6/CyclinD1 (Homo sapiens (Human), UniProt Q00534). The experiment in a line: CDK6/CyclinD1 enzyme activity test (LANCE Ultra TR-FRET). To be noted: 250 μM ATP, 25° C. 120 minutes, read-out: CDK6/Cyclin D1 IC50. The class given is biochemical. The protocol:
CDK6/CyclinD1 Enzyme Reaction System
(§3) Preparation of Kinase Buffer:
(§4) The composition of the buffer: 50 mM of hydroxyethylpiperazine ethanesulfonic acid solution at pH 7.5, 1 mM of ethylenediaminetetraacetic acid, 10 mM of magnesium chloride, 0.01% Brij-35, and 2 mM of dithiothreitol.
(§5) Enzymes, substrate LANCE Ultra ULight™-4E-BP-1(Thr37146) Peptide, ATP, and inhibitors were diluted by kinase buffer.
(§6) The compounds to be tested were diluted 5-fold with a multi-channel pipette to the eighth concentration, that is, from 40 μM to 0.512 nM, the concentration of DMSO was 4%, and a double-hole experiment was set up. […] The reaction system was reacted at 25° C. for 120 minutes. After the reaction, 5 μL mixture of EDTA and 2× LANCE™ Detection Buffer (1:1) were added to each well, the reaction was carried out at 25° C. for 5 minutes, after the reaction was completed, 5 μL of LANCE Ultra Eu-anti-P-4E-BP1(Thr37MS) (4 nM) was added to each well, the reaction was carried out at 25° C. for 60 minutes, the reaction signal was detected by Nivo instrument according to the principle of time-resolved fluorescence resonance energy transfer.
as §2

The nature of series [2]: Pharmacokinetic evaluation in CD-1 (ICR) mice, oral. The class given is in vivo, mouse. Particulars: male CD-1 (ICR) mice, oral 5 mg/kg, plasma. The protocol: Experimental Scheme of Compounds 18, 19 and 20
The healthy adult male CD-1 (ICR) mice used in this study were purchased from Pinghu Weitong Lihua Experimental Animal Technology Co., Ltd.
0.300 mL of the stock solution was measured and vortexed for 2 minutes to obtain a homogeneous suspension at a concentration of 1 mg/mL, and the administration vehicle was 1% HPMC in water.
Two male CD-1 (ICR) mice were given 5 mg/kg of the compound to be tested by intragastric administration.
The blood of two animals was collected at each time point by serial blood collection. 30 μL of whole blood was collected respectively at 0.25, 0.5, 1, 2, 4, 8, and 24 hours after administration. The whole blood was placed in an anticoagulant tube, centrifuged at 3200 g for 10 minutes at 4° C., plasma was prepared and stored at −60° C. or lower. The drug concentration in plasma was determined by LC/MS-MS.

The subject of another series is OVCAR-3 cells. Kind of series: Cell activity test, anti-proliferation (CellTiter Glo), OVCAR-3. Particulars: OVCAR-3, 7 days of culture. The class given is cell-based, human. The protocol: 2) Day 1: Laying Cell Plates
(6) 0.7 mL of cell suspension was pipetted into the counting cup, the cells were counted on ViCell XR, and the cell suspension was diluted separately with culture medium to the required cell concentration for laying cell plates: 1000/30 ul.
(7) Microplates (2 plates) were required, 100 uL of phosphate buffered saline was added to the peripheral wells of the 384-well plate, 30 uL of cell suspension was added to the other wells, and the cell plate was placed into incubator for culture.
(1) Compound preparation: the stock solution of the compound to be tested was 10 mM.
(2) The compound to be tested was diluted 3 times with DMSO for 10 gradients.
(2) The compound to be tested was diluted with culture medium, and the highest final concentration was 10 μM.
(4) 10 μL of the compound was pipetted into the 384-well plate, and then the cell plate was placed back into the incubator for culture.
4) Adding CTG and Reading the Plate
(1) After 7 days of culture, 50 ul CellTiter Glo was added to the cell plate, shaken for 10 minutes in the dark, and left at room temperature for 5 minutes.
(2) The plate was read on Envision with the program: US LUM 384 (CPS). The experiment was originally stored in the personal disk:
1. The mean and standard deviation of 0% inhibition (DMSO row, ZPE) and 100% inhibition (PBS row, HPE) were calculated;
2. Inhibition rate (%)=(1−(sample value-average value of 100% inhibition)/(average value of 0% inhibition-average value of 100% inhibition))*100;
3. The curve was fitted by GraphPad 8.0 software;

In the next series the target is CDK4/CyclinD1 (Homo sapiens (Human), UniProt P11802). The experiment in a line: CDK4/CyclinD1 enzyme activity test (LANCE Ultra TR-FRET). The class given is biochemical. To be noted: 350 μM ATP, 25° C. 120 minutes, read-out: CDK4/Cyclin D1 IC50. The procedure:
CDK4/CyclinD1 Enzyme Reaction System
as §3, §4, §5, §6, §2

Another series has as its target CDK7/CyclinH/MAT1 (Homo sapiens (Human), UniProt P50613). Kind of series: CDK7/CyclinH/MAT1 enzyme activity test (ADP-Glo). The series is classed as biochemical. To be noted: 10 μM ATP, 25° C. 120 minutes, read-out: CDK7/Cyclin H IC50.
Another series has as its target CDK9/CyclinT1 (Homo sapiens (Human), UniProt P50750). The experiment in a line: CDK9/CyclinT1 enzyme activity test (ADP-Glo). The series is classed as biochemical. Particulars: 100 μM ATP, 25° C. 120 minutes, read-out: CDK 9/Cyclin T1 IC50. The protocol:
CDK9/CyclinT1 Enzyme Reaction System
as §1, with “of CDK9/CyclinT1” for “of CDK2/CyclinE1”, “enzyme (4” for “enzyme (2”, “ATP (100” for “ATP (150”, “ATP, 0.2” for “ATP, 0.1”, “for 120” for “for 60”
as §2

For another series, the target named is CDK2/CyclinA2 (Homo sapiens (Human), UniProt P24941). Kind of series: CDK2/CyclinA2 enzyme activity test (ADP-Glo). The series is classed as biochemical. To be noted: 50 μM ATP, 25° C. 60 minutes, read-out: CDK2/Cyclin A2 IC50. The procedure:
CDK2/CyclinA2 Enzyme Reaction System
as §1, with “CDK2/CyclinA2” for “CDK2/CyclinE1”, “(1.6” for “(2”, “(50” for “(150”, “seconds” for “seconds.”
as §2

For another series, the target named is CDK1/CyclinB1 (Homo sapiens (Human), UniProt P06493). Kind of series: CDK1/CyclinB1 enzyme activity test (ADP-Glo). The class given is biochemical. To be noted: 25 μM ATP, 25° C. 120 minutes, read-out: CDK1/Cyclin B IC50. The procedure:
CDK1/CyclinB1 Enzyme Reaction System
as §1, with “CDK1/CyclinB1” for “CDK2/CyclinE1”, “(12.5” for “(2”, “(25” for “(150”, “adenosine triphosphate, 0.2” for “ATP, 0.1”, “120” for “60”
as §2

Sequence of CDK6/CyclinD1 (Q00534 whole entry): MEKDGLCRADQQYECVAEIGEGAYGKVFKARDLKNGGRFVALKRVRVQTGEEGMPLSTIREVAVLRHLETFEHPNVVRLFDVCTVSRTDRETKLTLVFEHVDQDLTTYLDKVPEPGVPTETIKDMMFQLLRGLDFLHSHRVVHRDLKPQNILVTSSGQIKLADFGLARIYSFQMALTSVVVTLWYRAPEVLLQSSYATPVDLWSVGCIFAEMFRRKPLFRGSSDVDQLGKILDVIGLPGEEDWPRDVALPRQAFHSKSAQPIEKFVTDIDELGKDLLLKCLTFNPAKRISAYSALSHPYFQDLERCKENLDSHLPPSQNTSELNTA
Sequence of CDK6/CyclinD1 (P24385 whole entry partner): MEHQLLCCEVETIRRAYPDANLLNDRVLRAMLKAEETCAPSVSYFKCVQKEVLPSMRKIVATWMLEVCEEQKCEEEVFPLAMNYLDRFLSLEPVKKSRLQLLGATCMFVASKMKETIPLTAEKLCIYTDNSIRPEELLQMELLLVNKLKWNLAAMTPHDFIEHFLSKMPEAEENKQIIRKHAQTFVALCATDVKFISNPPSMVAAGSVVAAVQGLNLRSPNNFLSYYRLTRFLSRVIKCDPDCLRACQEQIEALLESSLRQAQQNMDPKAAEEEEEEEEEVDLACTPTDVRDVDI
Sequence of CDK4/CyclinD1 (P11802 whole entry): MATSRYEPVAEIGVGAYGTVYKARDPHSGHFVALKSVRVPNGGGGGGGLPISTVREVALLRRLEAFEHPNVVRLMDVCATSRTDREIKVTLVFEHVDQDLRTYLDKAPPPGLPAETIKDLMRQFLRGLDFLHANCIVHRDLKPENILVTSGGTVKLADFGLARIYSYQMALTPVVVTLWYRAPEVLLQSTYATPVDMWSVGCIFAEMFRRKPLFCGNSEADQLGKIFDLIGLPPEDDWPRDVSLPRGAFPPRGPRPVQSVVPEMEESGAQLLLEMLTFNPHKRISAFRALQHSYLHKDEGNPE
Sequence of CDK4/CyclinD1 (P24385 whole entry partner): as the sequence (P24385 whole entry partner) above
Sequence of CDK1/CyclinB1 (P06493 whole entry): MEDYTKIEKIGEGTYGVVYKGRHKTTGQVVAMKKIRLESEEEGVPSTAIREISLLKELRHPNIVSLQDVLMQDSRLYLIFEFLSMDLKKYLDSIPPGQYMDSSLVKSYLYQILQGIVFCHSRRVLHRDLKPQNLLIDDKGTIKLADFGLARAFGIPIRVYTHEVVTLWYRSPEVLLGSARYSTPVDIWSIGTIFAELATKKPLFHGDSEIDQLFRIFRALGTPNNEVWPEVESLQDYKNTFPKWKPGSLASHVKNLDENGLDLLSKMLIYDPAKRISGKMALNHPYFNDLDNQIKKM
Sequence of CDK1/CyclinB1 (P14635 whole entry partner): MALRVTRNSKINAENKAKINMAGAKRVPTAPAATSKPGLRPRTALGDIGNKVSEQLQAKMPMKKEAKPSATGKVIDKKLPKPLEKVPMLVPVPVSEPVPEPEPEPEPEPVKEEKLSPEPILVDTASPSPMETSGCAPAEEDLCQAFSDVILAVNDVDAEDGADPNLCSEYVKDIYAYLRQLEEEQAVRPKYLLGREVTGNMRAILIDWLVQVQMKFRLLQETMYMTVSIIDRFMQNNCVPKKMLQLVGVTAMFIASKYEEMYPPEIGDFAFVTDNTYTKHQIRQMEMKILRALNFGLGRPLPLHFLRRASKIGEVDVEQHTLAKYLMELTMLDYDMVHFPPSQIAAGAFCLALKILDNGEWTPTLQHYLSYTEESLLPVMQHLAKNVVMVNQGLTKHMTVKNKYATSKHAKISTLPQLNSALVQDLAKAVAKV
Sequence of CDK7/CyclinH/MAT1 (P50613 whole entry): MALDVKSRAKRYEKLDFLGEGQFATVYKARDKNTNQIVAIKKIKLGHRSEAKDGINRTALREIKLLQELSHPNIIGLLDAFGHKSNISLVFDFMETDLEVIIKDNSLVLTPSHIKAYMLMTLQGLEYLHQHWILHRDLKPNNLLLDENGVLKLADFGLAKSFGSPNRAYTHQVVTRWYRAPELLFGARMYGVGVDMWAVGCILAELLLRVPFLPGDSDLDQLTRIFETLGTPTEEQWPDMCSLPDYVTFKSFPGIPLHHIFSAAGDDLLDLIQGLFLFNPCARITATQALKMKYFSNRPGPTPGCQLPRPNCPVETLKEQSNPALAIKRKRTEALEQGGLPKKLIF
Sequence of CDK7/CyclinH/MAT1 (P51946 whole entry partner): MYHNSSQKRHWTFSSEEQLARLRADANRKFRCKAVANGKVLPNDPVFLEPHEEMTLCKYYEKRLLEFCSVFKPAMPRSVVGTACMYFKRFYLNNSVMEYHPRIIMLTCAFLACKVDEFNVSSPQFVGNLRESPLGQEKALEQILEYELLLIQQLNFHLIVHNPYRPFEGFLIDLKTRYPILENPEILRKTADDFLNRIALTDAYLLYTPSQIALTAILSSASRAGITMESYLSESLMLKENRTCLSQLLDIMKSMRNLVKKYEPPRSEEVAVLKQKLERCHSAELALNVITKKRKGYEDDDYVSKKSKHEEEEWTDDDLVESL
Sequence of CDK7/CyclinH/MAT1 (P51948 whole entry partner): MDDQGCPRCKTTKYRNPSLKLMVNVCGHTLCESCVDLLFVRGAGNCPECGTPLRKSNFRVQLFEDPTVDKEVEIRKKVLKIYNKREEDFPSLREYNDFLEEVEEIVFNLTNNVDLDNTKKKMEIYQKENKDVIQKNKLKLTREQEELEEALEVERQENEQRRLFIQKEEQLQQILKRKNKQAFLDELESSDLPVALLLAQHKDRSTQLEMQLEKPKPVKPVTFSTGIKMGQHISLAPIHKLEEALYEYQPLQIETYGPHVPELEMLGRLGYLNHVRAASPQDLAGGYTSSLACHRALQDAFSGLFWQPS
Sequence of CDK9/CyclinT1 (P50750 whole entry): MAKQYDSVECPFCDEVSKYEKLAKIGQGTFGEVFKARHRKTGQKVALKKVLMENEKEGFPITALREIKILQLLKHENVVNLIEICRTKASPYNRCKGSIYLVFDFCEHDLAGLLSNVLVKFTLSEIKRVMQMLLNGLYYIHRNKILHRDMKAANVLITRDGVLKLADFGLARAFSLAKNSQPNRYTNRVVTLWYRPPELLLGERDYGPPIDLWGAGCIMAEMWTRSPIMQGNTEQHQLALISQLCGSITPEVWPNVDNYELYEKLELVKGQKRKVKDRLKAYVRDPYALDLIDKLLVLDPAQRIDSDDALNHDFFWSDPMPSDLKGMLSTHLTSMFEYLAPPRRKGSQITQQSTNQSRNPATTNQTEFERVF
Sequence of CDK9/CyclinT1 (O60563 whole entry partner): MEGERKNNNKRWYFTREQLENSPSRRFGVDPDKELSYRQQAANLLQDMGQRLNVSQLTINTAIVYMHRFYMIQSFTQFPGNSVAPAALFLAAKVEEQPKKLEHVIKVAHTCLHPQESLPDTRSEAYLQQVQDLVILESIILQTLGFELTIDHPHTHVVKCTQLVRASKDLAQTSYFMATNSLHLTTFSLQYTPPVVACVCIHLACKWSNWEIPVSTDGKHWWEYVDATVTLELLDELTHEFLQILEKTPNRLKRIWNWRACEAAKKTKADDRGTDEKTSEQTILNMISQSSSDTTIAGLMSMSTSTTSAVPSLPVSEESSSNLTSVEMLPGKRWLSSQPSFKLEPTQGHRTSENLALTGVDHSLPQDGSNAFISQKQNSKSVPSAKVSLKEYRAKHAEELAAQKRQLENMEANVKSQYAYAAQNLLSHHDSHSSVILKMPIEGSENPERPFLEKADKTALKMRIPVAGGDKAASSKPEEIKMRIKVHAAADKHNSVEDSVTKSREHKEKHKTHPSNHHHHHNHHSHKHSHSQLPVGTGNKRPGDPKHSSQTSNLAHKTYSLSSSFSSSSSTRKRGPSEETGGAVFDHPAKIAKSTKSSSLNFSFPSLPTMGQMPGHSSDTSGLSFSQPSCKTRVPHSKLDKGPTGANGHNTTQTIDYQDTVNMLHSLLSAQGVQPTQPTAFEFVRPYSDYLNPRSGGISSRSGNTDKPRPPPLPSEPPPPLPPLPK
Protocol for CDK7/CyclinH/MAT1: CDK7/CyclinH/MAT1 Enzyme Reaction System
Enzymes, substrates (MBP), ATP, and inhibitors were diluted by kinase buffer in the kit. The compounds to be tested were diluted 5-fold with a multi-channel pipette to the eighth concentration, that is, from 50 μM to 0.65 nM, the concentration of DMSO was 5%, and a double-hole experiment was set up. 1 μL of each concentration gradient of inhibitors, 2 μL of CDK7/CyclinH/MAT1 enzyme (20 ng), 2 μL mixture of substrate and ATP (10 μM ATP, 0.1 μg/μL substrate) were added to the microplates, and the final concentration gradient of the compound was 10 μM to 0.13 nM. The reaction system was reacted at 25° C. for 120 minutes. After the reaction, 5 μL of ADP-Glo reagent was added to each well, the reaction was carried out at 25° C. for 40 minutes, after the reaction was completed, 10 μL of kinase detection reagent was added to each well, the reaction was carried out at 25° C. for 30 minutes, the multiple label analyzer was used to read the chemiluminescence with an integration time of 0.5 seconds.

With `CC(Nc1nc(C(F)F)cc2cnc(NC3CCN(S(C)(=O)=O)CC3)nc12)C(F)(F)F` (stereo not shown) [Compound 18], the “Tumor volume (Day 0)” value in series [1] (Day 0 (at grouping), OVCAR-3 xenograft, BALB/c nude mice) turned out to be 151 mm^3. Also, the “Tumor volume (Day 7)” value in series [1] (Day 7, 10 mg/kg from day 0 to day 7) is recorded as 233 mm^3. In addition, in [1] (Day 14, 10 mg/kg from day 0 to day 14), the “Tumor volume (Day 14)” value is listed as 393 mm^3. For the same compound, the “Tumor volume (Day 21)” value in series [1] (Day 21, 10 mg/kg day 0 to day 14, 30 mg/kg from day 14 to day 21) was found to be 529 mm^3. Moreover, the IC50 at CDK2/CyclinE1 stood at 4.72 nM; on CDK6/CyclinD1, 1.32 nM; in the series on OVCAR-3 cells, 17 nM; on CDK4/CyclinD1, 1.56 nM. Further, the “Oral exposure AUC0-t” value in series [2] was 2.365 µM·h.
Consider `Cc1cc2cnc(NC3CCN(S(C)(=O)=O)CC3)nc2c(N[C@@H]2CCC[C@@]2(C)O)n1` [Compound 8], for which the IC50 at CDK7/CyclinH/MAT1 was 41 nM; on CDK2/CyclinE1 it was 3.92 nM; at CDK9/CyclinT1, 89 nM; on CDK6/CyclinD1, 0.81 nM; on CDK2/CyclinA2, 0.73 nM; at CDK4/CyclinD1 it was 1.23 nM. Also, the IC50 on CDK1/CyclinB1 was 6.77 nM.
